The subject of this assay is HEK293-STF3A cells. In words: STF3A assay (luciferase reporter). The class given is cell-based, Human. To be noted: Homo sapiens, 24 h, 1 day of treatment. The text has this: HEK293-STF cell line was modified from Human embryonic kidney cell line HEK293 transfected with the STF reporter. HEK293-STF3A cell line was further modified from HEK293-STF cell line to express Wnt3A. This cell line was used to identify compounds that regulate either early or late signaling components of the Wnt pathway. These two cell lines were obtained from David Virshup's laboratory, Duke-NUS. L-Wnt3A (ATCC, #CRL-2647) cell line was used for providing Wnt3A conditioned media. The three cell lines were grown in DMEM with 10% FBS incubated in 37° C. with 5% CO2.
2×10^4 HEK293-STF3A cells in 75 μl culture media were seeded in each well of white 96 well plates (Greiner #655098) and incubated overnight at 37° C. 25 μl serially diluted compound was added to the cells to give final concentration of 50 μM to 1.5 nM. After 1 day of treatment, 100 μl of Steady-Glo Luciferase Assay reagent (#E2520, Promega) was added to each well and incubated for 10 minutes at room temperature. Luminescence was measured using Tecan Safire2 plate reader.
(A reporter such as luciferase makes a cellular process visible.)
A word on the IC50: it is the concentration at which inhibition is half-maximal. A lower IC50 goes with higher potency. For the compound `Cc1cc2n(n1)CCCN2C(=O)CCC(=O)Nc1ccc(-c2cccnc2)nc1` [Compound 48, N-([2,3′-bipyridin]-5-yl)-4-(2-methyl-6,7-dihydropyrazolo[1,5-a]pyrimidin-4(5H)-yl)-4-oxobutanamide], the IC50 is < 100 nM.

For the compound `Cc1cc2n(n1)CCCN2C(=O)CCC(=O)Nc1ccc(-c2cccnc2)cn1` [Compound 49, 4-{2-methyl-5H,6H,7H-pyrazolo[1,5-a]pyrimidin-4-yl}-4-oxo-N-[5-(pyridin-3-yl)pyridin-2-yl]butanamide], the 50% inhibitory concentration (IC50) was < 100 nM.

In the case of `Cc1cc2n(n1)CCCN2C(=O)CCC(=O)Nc1ccc(-c2cnccn2)cn1` [Compound 50, 4-(2-methyl-6,7-dihydropyrazolo[1,5-a]pyrimidin-4(5H)-yl)-4-oxo-N-(5-(pyrazin-2-yl)pyridin-2-yl)butanamide], the IC50 is < 100 nM.

`Cc1cc2n(n1)CCCN2C(=O)CCC(=O)Nc1cnc(-c2cccnc2)cn1` [Compound 52, 4-(2-methyl-6,7-dihydropyrazolo[1,5-a]pyrimidin-4(5H)-yl)-4-oxo-N-(5-(pyridin-3-yl)pyrazin-2-yl)butanamide]: the IC50 is < 100 nM.

Turning to `Cc1cc2n(n1)CCCN2C(=O)CCC(=O)Nc1ccc(-c2ccccc2)cc1C` [Compound 53, 4-(2-methyl-6,7-dihydropyrazolo[1,5-a]pyrimidin-4(5H)-yl)-N-(3-methyl-[1,1′-biphenyl]-4-yl)-4-oxobutanamide], the half-inhibitory concentration (IC50) is > 10000 nM.

With `Cc1cc2n(n1)CCCN2C(=O)CCC(=O)Nc1ccc(-c2ccccc2)c(C)c1` [Compound 54, 4-(2-methyl-6,7-dihydropyrazolo[1,5-a]pyrimidin-4(5H)-yl)-N-(2-methyl-[1,1′-biphenyl]-4-yl)-4-oxobutanamide], the concentration for half-maximal inhibition (IC50) is < 100 nM.

For the compound `COc1cc(-c2ccccc2)ccc1NC(=O)CCC(=O)N1CCCn2nc(C)cc21` [Compound 55, N-(3-methoxy-[1,1′-biphenyl]-4-yl)-4-(2-methyl-6,7-dihydropyrazolo[1,5-a]pyrimidin-4(5H)-yl)-4-oxobutanamide], the IC50 was > 10000 nM.

`COc1cc(NC(=O)CCC(=O)N2CCCn3nc(C)cc32)ccc1-c1ccccc1` [Compound 56, N-(2-methoxy-[1,1′-biphenyl]-4-yl)-4-(2-methyl-6,7-dihydropyrazolo[1,5-a]pyrimidin-4(5H)-yl)-4-oxobutanamide]: the IC50 is < 5000 nM.

Regarding `Cc1cc2n(n1)CCCN2C(=O)CCC(=O)Nc1ccc(-c2ccccc2)c(F)c1` [Compound 57, N-(2-fluorobiphenyl-4-yl)-4-(2-methyl-6,7-dihydropyrazolo[1,5-a]pyrimidin-4(5H)-yl)-4-oxobutanamide], the IC50 was < 100 nM.

For the compound `Cc1cc2n(n1)CCCN2C(=O)CCC(=O)Nc1ccc(-c2ccccc2C)cc1` [Compound 58, 4-(2-methyl-6,7-dihydropyrazolo[1,5-a]pyrimidin-4(5H)-yl)-N-(2′-methyl-[1,1′-biphenyl]-4-yl)-4-oxobutanamide], the IC50 is < 100 nM.

As to `Cc1cccc(-c2ccc(NC(=O)CCC(=O)N3CCCn4nc(C)cc43)cc2)c1` [Compound 59, 4-(2-methyl-6,7-dihydropyrazolo[1,5-a]pyrimidin-4(5H)-yl)-N-(3′-methyl-[1,1′-biphenyl]-4-yl)-4-oxobutanamide], the IC50 is < 100 nM.

Regarding `Cc1ccc(-c2ccc(NC(=O)CCC(=O)N3CCCn4nc(C)cc43)cc2)cc1` [Compound 60, 4-(2-methyl-6,7-dihydropyrazolo[1,5-a]pyrimidin-4(5H)-yl)-N-(4′-methyl-[1,1′-biphenyl]-4-yl)-4-oxobutanamide], the IC50 was < 100 nM.

With `COc1ccccc1-c1ccc(NC(=O)CCC(=O)N2CCCn3nc(C)cc32)cc1` [Compound 61, N-(2′-methoxy-[1,1′-biphenyl]-4-yl)-4-(2-methyl-6,7-dihydropyrazolo[1,5-a]pyrimidin-4(5H)-yl)-4-oxobutanamide], the IC50 was > 10000 nM.

Consider `COc1cccc(-c2ccc(NC(=O)CCC(=O)N3CCCn4nc(C)cc43)cc2)c1` [Compound 62, N-(3′-methoxy-[1,1′-biphenyl]-4-yl)-4-(2-methyl-6,7-dihydropyrazolo[1,5-a]pyrimidin-4(5H)-yl)-4-oxobutanamide], for which the 50% inhibitory concentration (IC50) is < 100 nM.

With `COc1ccc(-c2ccc(NC(=O)CCC(=O)N3CCCn4nc(C)cc43)cc2)cc1` [Compound 63, N-(4′-methoxy-[1,1′-biphenyl]-4-yl)-4-(2-methyl-6,7-dihydropyrazolo[1,5-a]pyrimidin-4(5H)-yl)-4-oxobutanamide], the concentration for half-maximal inhibition (IC50) is < 100 nM.

With `Cc1cc2n(n1)CCCN2C(=O)CCC(=O)Nc1ccc(-c2ccccc2F)cc1` [Compound 64, N-(2′-fluoro-[1,1′-biphenyl]-4-yl)-4-(2-methyl-6,7-dihydropyrazolo[1,5-a]pyrimidin-4(5H)-yl)-4-oxobutanamide], the IC50 is < 100 nM.

As for `Cc1cc2n(n1)CCCN2C(=O)CCC(=O)Nc1ccc(-c2cccc(F)c2)cc1` [Compound 65, N-(3′-fluoro-[1,1′-biphenyl]-4-yl)-4-(2-methyl-6,7-dihydropyrazolo[1,5-a]pyrimidin-4(5H)-yl)-4-oxobutanamide], the IC50 is < 100 nM.

For the compound `Cc1cc2n(n1)CCCN2C(=O)CCC(=O)Nc1ccc(-c2ccc(F)cc2)cc1` [Compound 66, N-(4′-fluorobiphenyl-4-yl)-4-(2-methyl-6,7-dihydropyrazolo[1,5-a]pyrimidin-4(5H)-yl)-4-oxobutanamide], the concentration for half-maximal inhibition (IC50) is < 1000 nM.

Take `Cc1cc2n(n1)CCCN2C(=O)CCC(=O)Nc1ccc(-c2cccc(C(=O)O)c2)cc1` [Compound 67, 4′-(4-(2-methyl-6,7-dihydropyrazolo[1,5-a]pyrimidin-4(5H)-yl)-4-oxobutanamido)-[1,1′-biphenyl]-3-carboxylic acid]: the concentration for half-maximal inhibition (IC50) was > 10000 nM.

Turning to `Cc1cc2n(n1)CCCN2C(=O)CCC(=O)Nc1ccc(-c2cccc(C(=O)N(C)C)c2)cc1` [Compound 68, N,N-dimethyl-4′-(4-(2-methyl-6,7-dihydropyrazolo[1,5-a]pyrimidin-4(5H)-yl)-4-oxobutanamido)-[1,1′-biphenyl]-3-carboxamide], the 50% inhibitory concentration (IC50) was > 10000 nM.

Take `Cc1cc2n(n1)CCCN2C(=O)CCC(=O)Nc1ccc(-c2ccccc2N)cc1` [Compound 69, N-(2′-amino-[1,1′-biphenyl]-4-yl)-4-(2-methyl-6,7-dihydropyrazolo[1,5-a]pyrimidin-4(5H)-yl)-4-oxobutanamide]: the IC50 is < 1000 nM.

For the compound `Cc1cc2n(n1)CCCN2C(=O)CCC(=O)Nc1ccc(-c2cccc(N)c2)cc1` [Compound 70, N-(3′-amino-[1,1′-biphenyl]-4-yl)-4-(2-methyl-6,7-dihydropyrazolo[1,5-a]pyrimidin-4(5H)-yl)-4-oxobutanamide], the IC50 was < 100 nM.

In the case of `Cc1cc2n(n1)CCCN2C(=O)CCC(=O)Nc1ccc(-c2ccc(N)cc2)cc1` [Compound 71, N-(4′-amino-[1,1′-biphenyl]-4-yl)-4-(2-methyl-6,7-dihydropyrazolo[1,5-a]pyrimidin-4(5H)-yl)-4-oxobutanamide], the 50% inhibitory concentration (IC50) is < 100 nM.

On to `Cc1cc2n(n1)CCCN2C(=O)CCC(=O)Nc1ccc(-c2cccc(N(C)C)c2)cc1` [Compound 72, N-(3′-(dimethylamino)-[1,1′-biphenyl]-4-yl)-4-(2-methyl-6,7-dihydropyrazolo[1,5-a]pyrimidin-4(5H)-yl)-4-oxobutanamide], for which the IC50 was > 10000 nM.

As to `Cc1cc2n(n1)CCCN2C(=O)CCC(=O)Nc1ccc(-c2cccc(N3CCOCC3)c2)cc1` [Compound 73, 4-(2-methyl-6,7-dihydropyrazolo[1,5-a]pyrimidin-4(5H)-yl)-N-(3′-morpholinobiphenyl-4-yl)-4-oxobutanamide], the IC50 is < 5000 nM.

Regarding `CC(=O)Nc1cccc(-c2ccc(NC(=O)CCC(=O)N3CCCn4nc(C)cc43)cc2)c1` [Compound 74, N-(3′-acetamido-[1,1′-biphenyl]-4-yl)-4-(2-methyl-6,7-dihydropyrazolo[1,5-a]pyrimidin-4(5H)-yl)-4-oxobutanamide], the half-inhibitory concentration (IC50) was < 5000 nM.

As to `Cc1cc2n(n1)CCCN2C(=O)CCC(=O)Nc1ccc(C2CCCCC2)cc1` [Compound 75, N-(4-cyclohexylphenyl)-4-(2-methyl-6,7-dihydropyrazolo[1,5-a]pyrimidin-4(5H)-yl)-4-oxobutanamide], the half-maximal inhibitory concentration (IC50) was > 10000 nM.

`Cc1cc2n(n1)CCCN2C(=O)CCC(=O)Nc1ccc(N2CCN(C(=O)OC(C)(C)C)CC2)cc1` [Compound 76, tert-butyl 4-(4-(4-(2-methyl-6,7-dihydropyrazolo[1,5-a]pyrimidin-4(5H)-yl)-4-oxobutanamido)phenyl)piperazine-1-carboxylate]: the IC50 was < 100 nM.

For `Cc1cc2n(n1)CCCN2C(=O)CCC(=O)Nc1ccc(N2CCNCC2)cc1` [Compound 77, 4-(2-methyl-6,7-dihydropyrazolo[1,5-a]pyrimidin-4(5H)-yl)-4-oxo-N-(4-(piperazin-1-yl)phenyl)butanamide], the IC50 is > 10000 nM.

On to `CC(=O)N1CCN(c2ccc(NC(=O)CCC(=O)N3CCCn4nc(C)cc43)cc2)CC1` [Compound 78, N-(4-(4-acetylpiperazin-1-yl)phenyl)-4-(2-methyl-6,7-dihydropyrazolo[1,5-a]pyrimidin-4(5H)-yl)-4-oxobutanamide], for which the IC50 is > 10000 nM.

As for `CCNC(=O)N1CCN(c2ccc(NC(=O)CCC(=O)N3CCCn4nc(C)cc43)nc2)CC1` [Compound 79, N-ethyl-4-(6-(4-(2-methyl-6,7-dihydropyrazolo[1,5-a]pyrimidin-4(5H)-yl)-4-oxobutanamido)pyridin-3-yl)piperazine-1-carboxamide], the IC50 was < 5000 nM.

The values above are taken from US10189842B2 (Agency for Science, Technology and Research, priority 2013, dated 2019).
